The structures appear in SMILES notation. Residues, ends and D or L forms follow the SMILES beside them. *: point of attachment. Tos = Cc1ccc(S(=O)(=O)*)cc1

Consider 91 compounds from a melting point compilation (Tetko et al.; mined from patent text by program, amines drawn as free bases though some values may be those of a salt).

For the compound `CC(C)CC(=O)Nc1c(C(N)=O)nnn1Cc1ccccc1`, the melting point (usually the temperature of the solid-liquid transition) is 181 to 182 °C. Under `O=C(NCc1ccco1)Nc1cc(N2CC(c3ccccc3)CC2=O)ccn1` (stereo unspecified) stands 158 to 160 °C. `COc1ccc(C)cc1NC(=O)Nc1ccc(N2CCN(C(=O)Nc3ccc(OCC(O)CO)cc3Cl)CC2)cc1` (stereo unspecified) came in with a melting point of 134 to 136 °C. Under `CC(C)(C)c1cc(CCc2ccccc2NC(=O)NC2CCN(Cc3ccc(Cl)cc3)CC2)cc(C(C)(C)C)c1O` stands 184 to 185 °C. `COc1ccc(C(=O)Nc2cc3c(cc2CCC2CCCCN2C)OCO3)cc1` (stereo unspecified) yielded a melting point of 112 to 113 °C. The value for `COc1cc(OCCOC(C)C)cc2nc(-c3cc(C)nc(C)c3)[nH]c(=O)c12` was 188 to 189 °C; that for `CC(C)OC(=O)c1cc(-n2c(=O)[nH]c(C(F)(F)F)c(F)c2=O)c(F)cc1Cl` was 102 to 106 °C. As to `COc1ccc(Oc2nc(Oc3ccc(OC)c(F)c3)nc(Oc3ccc(OC)c(F)c3)n2)cc1F`, the melting point was greater than 210 °C.

On to `CCOC(=O)c1cn(OC)c2ccccc2c1=O`, for which the melting point lay within 120 to 121 °C.

`CCOC(=O)CCCCCOc1ccc(C(=O)Nc2ccccc2Oc2ccccc2-c2nnn[nH]2)cc1` showed a melting point of 140 to 141 °C.

`CNC(=O)NCCN1CCC(=C2c3ccccc3CCn3ccnc32)CC1`: the melting point amounted to 178 °C.

Take `CC(C)c1ccc(N(Cc2ccc(N(C)C)cc2)C(=O)C2CCCc3ccc(O)cc32)cc1` (stereo unspecified): the melting point fell in the range of 214 to 217 °C. The value for `CCCCCCCCCCCCc1cc(Cc2ccccc2)on1` was 41 to 43 °C.

The compound `Nc1cc(-c2ccccn2)c[nH]c1=O` returned a melting point of 259 to 262 °C.

The compound `Cc1ccc(S(=O)(=O)N2CCC[C@H]2C(=O)N[C@@H](CCCCN)C(=O)O)cc1` (Tos-Pro-Lys-OH) came in with a melting point greater than 200 °C.

For the compound `CN1CCCc2c1cc[nH]c2=O`, the melting point turned out to be 260 °C. Under `CCN(CC)c1ccc(C2(c3c(C)n(CC)c4ccccc34)OC(=O)c3ccccc32)c(OCc2ccccc2)c1` (stereo unspecified) stands 138 °C; under `CN1Cc2csc(=S)n2-c2ccc(F)c(F)c21`, 165 to 167 °C.

The compound `Cc1ccc(Cl)c(Nc2ccccc2CON=CC(=O)O)c1Cl` registered a melting point of 185 to 187 °C. Under `O=C(c1ccc(O)cc1)c1ccc2cc(C(=O)c3ccc(O)cc3)ccc2c1` stands 307 °C; under `Cc1cc(Cl)nnc1-c1cccc([N+](=O)[O-])c1`, 169 to 171 °C. The value for `CCCCCCCCC1CNc2cc(C(=O)OC)ccc21` (racemic) was 57 to 60 °C.

`COc1cc(C(C)C)c2c(c1OC)S(=O)(=O)NC2=O` displayed a melting point of 210 to 212 °C. On to `Nc1ccc2ccc(Oc3ccc(Cl)c(Cl)c3)nc2n1`, for which the melting point is 206 °C. `CN1CCC(C(=O)Nc2ccc(CN(C)C3CCOCC3)cc2)=Cc2cc(Br)ccc21`: the melting point fell in the range of 62 to 64 °C. In turn, `CNC(=O)c1ccc(-c2ccc3oc(C4CCN(C(=O)OC(C)C)CC4)nc3c2)cc1F` yielded a melting point of 116 to 120 °C. The value for `COCc1cc(O)n[nH]1` was 123 to 125 °C; that for `CCN1C(=O)C2CC(c3ccc([N+](=O)[O-])cc3)(C2)C1=O` was 175 to 179 °C; that for `O=C(NC[C@H]1CN(c2ccc(N3CCCC3=O)cc2)C(=O)O1)c1ccc(Cl)s1` was 229 °C.

Compound `COc1ccc(C=C(C#N)C#N)c2c1OC(C)(C)C2` came in with a melting point of 198 to 200 °C. Compound `CN1CCN(c2cc(F)cc3c(=O)cc(C(=O)Nc4ccc(N5CCN(C(=O)CCO)CC5)cc4)oc23)CC1` displayed a melting point of 195 to 199 °C. The value for `CCOC(=O)c1c(C)cc(C(=O)O)c(NC(C)=O)c1C` was 164 °C; that for `Cc1c(-c2ccc(N)cc2)[nH]c2nccnc12` was 330 to 332 °C. The value for `CC(c1oc2ccc(F)cc2c(=O)c1-c1ccccc1)n1cnc2c(N)ncnc21` (stereo unspecified) was 264 to 269 °C; that for `COC(=O)C(C#N)C(=O)c1snc(Cl)c1Cl` (stereo unspecified) was 119 to 122 °C.

For the compound `CC(C)(C)OC(=O)NCCOc1ccccc1OCCBr`, the melting point lay within 74 to 75 °C. In turn, `Brc1nc(Br)n(COCc2ccccc2)c1Sc1ccccc1` showed a melting point of 89 to 90 °C.

`CN1C(c2nnc(C3CCCCC3)o2)=C(OC(=O)c2ccccc2)c2ccccc2S1(=O)=O` came in with a melting point of 157 °C. The value for `CCCCNS(=O)(=O)CC(O)C(O)C(CC1CCCCC1)NC(=O)c1ccc(O)c(O)c1` (stereo unspecified) was 162 to 165 °C; that for `CC(=O)Oc1c(Cc2ccccc2)ccc2c1ccn2C` was 56 to 58 °C.

Regarding `O=c1[nH]c2cc(Cl)ccc2c(=O)n1S(=O)(=O)c1c(Cl)cccc1Cl`, the melting point fell in the range of 260 to 261 °C. For `Clc1cncc(-n2cccc2)c1`, the melting point was in the range of 70.5 to 72 °C.

With `CS(=O)(=O)OC[C@H]1CN(c2ccc(C3=CCSCC3)c(F)c2)C(=O)O1`, the melting point lay within 138 to 141 °C. Turning to `COc1cc2ccc(CCOS(C)(=O)=O)cc2cc1OC`, the melting point is 112 to 113 °C. Regarding `CCCc1c2c(c(F)c3c(=O)cc(C(=O)OCC)oc13)CCCC2`, the melting point is 126 to 129 °C. Consider `O=C1C(=Cc2cccs2)CCc2cc(OCCc3c[nH]cn3)ccc21`, for which the melting point is 60 to 63 °C.

`COc1ccc(C(C[N+](=O)[O-])SC(=S)N(C)C)cc1` (stereo unspecified): the melting point was 86 to 89 °C. Under `COc1ccc(CC(=O)c2ccc(F)cc2)cc1` stands 107 to 109 °C. Under `CCCCn1ccc(-c2ccc3c(c2)OCCN3[C@H]2CC[C@H](O)CC2)c(Cl)c1=O` stands 178 °C; under `CC(C)(C)OC(=O)[C@@H](N)Cc1cc(I)c(O)c(I)c1`, 165 to 168 °C. Take `CCOC(=O)c1[nH]cc(-c2ccc(F)cc2)c1C(C)C`: the melting point was in the range of 94 to 97 °C. The value for `CCOC(=O)CCC1OC(=O)C(O)=C1c1ccccc1` (stereo unspecified) was 114 to 116 °C; that for `COC(=O)C(C)C1CCC2C3CC=C4CC(OC(C)=O)CCC4(C)C3CCC12C` (stereo unspecified) was 140 to 142 °C. The value for `COc1ccc2c(c1O)C13CCN(CC4CC4)C(C2)C1(Cc1ccccc1)CCC(=O)C3` (stereo unspecified) was 122 to 124 °C; that for `c1cc2[nH]ncc2cc1OC1CCOCC1` was 151 to 153 °C; that for `O=C(Cc1ccccc1)NC1CN(OC(=O)c2ccccc2)C1=O` (stereo unspecified) was 128 to 130 °C. In the case of `CC(C)N1CC2CC(C1)CN(S(=O)(=O)c1ccccc1)C2`, the melting point was in the range of 85.5 to 86.5 °C. The value for `CNC(=O)C1CCNC(c2ccnc3ccccc23)C1` (stereo unspecified) was 250 to 254 °C; that for `O=C(O)COc1ccc(SCc2ccc(OCc3ccc(CF)cc3)cc2)c2c1CCC2` was 153 to 155 °C. Under `CC1(C)OC(=O)C(c2cccc3nnsc23)C(=O)O1` stands 170 to 172 °C; under `COc1cc(C(=O)N2Cc3ccc(C(=O)NCCC(c4ccccc4)c4ccccc4)n3Cc3ccccc32)ccc1-c1ccccc1C`, 214 °C. Under `COc1ccc(C2CCCN(C(=O)C(F)(F)F)C2)cc1NC(=O)NOCc1ccccc1` (stereo unspecified) stands 134 °C. In turn, `CN(CCN(O)C(N)=O)Cc1cccc(Oc2ccc(Cl)c(Cl)c2)c1` had a melting point of 107 to 109 °C. The value for `COc1cc(-c2cnc3[nH]cc(C(=O)C(C)(C)CO)c3n2)cc(OC)c1OC` was 227 to 229 °C. Under `CCOC(=O)c1c(C)cc(NC=O)c(C(=O)O)c1C` stands 146 to 148 °C; under `COc1ccc(S(=O)(=O)N2CCc3cccc(-c4ccc(C#N)cc4)c32)cc1`, 157 to 159 °C.

Turning to `CCCCS(=O)(=O)Nc1ccc(OCc2ccc3ccccc3n2)c(C#N)c1`, the melting point fell in the range of 158 to 160 °C. Under `COc1cc(CCCO)cc2c(O)c(C(=O)NCc3ccc(Cl)cc3)cnc12` stands 201 to 204 °C; under `CCOC(=O)c1nc2scc(C)n2c1C`, 141 to 142 °C. Under `CCOc1nn(C(=O)NS(=O)(=O)Cl)c(=O)n1C` stands 106 °C; under `N#CC1(c2ccc(OC(F)F)c(OC3CCCC3)c2)CCC(=O)CC1`, 76 to 78 °C. In turn, `CCOCc1nc2c(N)nc3ccccc3c2n1CC(=O)CC` registered a melting point of 187 to 188 °C.

`CN(C)CCOCc1ccc2[nH]nc(S(=O)(=O)c3cccc4ccccc34)c2c1` registered a melting point greater than 200 °C. Under `O=C(NN1CCc2ccccc2C1)Oc1ccc2c(c1)CN(Nc1ccncc1)C2` stands 162 to 163 °C. As for `Cc1c(OCC2CO2)noc1-c1ccccc1` (stereo unspecified), the melting point is 87 to 88 °C. Under `Cc1c(CC(=O)NCCO)cc(-c2ccc(S(C)(=O)=O)cc2)n1-c1ccc(F)cc1` stands 99 °C; under `Cn1cc(C2=C(c3cn(CCCSc4ncccn4)c4ccccc34)C(=O)NC2=O)c2ccccc21`, 125 to 127 °C; under `c1ccc(-c2cccn3cnnc23)nc1`, 212 to 214 °C.

`Cc1cc([N+](=O)[O-])cc(C)c1Oc1ccc(O)c(Cc2ccc(F)cc2)c1`: the melting point is 127 to 132 °C. Under `CCOC(=O)C1=CC2(CCC1S(=O)(=O)Nn1cccc1)OCCO2` (stereo unspecified) stands 115 to 117 °C; under `OC[C@H]1COc2ccc3scc(Cl)c3c2O1`, 92 to 93 °C; under `OC1c2ccc(Cl)cc2SC1Cn1ccnc1` (stereo unspecified), 164 to 165 °C. Turning to `CC1CC(=O)N(c2cc(Cc3n[nH]c(=O)c4ccccc34)ccc2F)C1=O` (stereo unspecified), the melting point was in the range of 171 to 172 °C. Under `CN(C)S(=O)(=O)Oc1ccc2c(c1)CCC1C2CCC2(C)C(O)C(O)CC12` (stereo unspecified) stands 180 to 181 °C. Under `COc1cc(CCCl)cc2c1OCO2` stands 67 to 68 °C.

`N#CC1Cc2ccc(Nc3ccncc3N)cc2C1` (stereo unspecified): the melting point was 98 to 100 °C. Turning to `Cn1nnnc1SCCCSc1ncccc1O`, the melting point was in the range of 87.5 to 88.5 °C.

Consider `Nc1nc(COCCO)nc2nccnc12`, for which the melting point is 149 to 151 °C. The value for `CCn1nnnc1Cc1ccc([N+](=O)[O-])cc1` was 104 to 105 °C.

For the compound `O=c1cc(-c2ccoc2)c2ccc(Sc3cccc(-c4ccccc4)n3)cc2o1`, the melting point is 175 to 178 °C.

In turn, `COc1ccc(C2=NC(C)(C)CO2)c(Cc2ccccc2)c1OC` registered a melting point of 81 to 82 °C.
